Laboratory results: PMC10244669, “Virtual screening–based discovery of AI-2 quorum sensing inhibitors that interact with an allosteric hydrophobic site of LsrK and their functional evaluation” (Frontiers in Chemistry, 2023)
“Also recorded” adds a separate entry of the source. Like-named read-outs stand apart in the source and are kept apart here.

Tests used:
[1] = molecular target: T1, LsrK (Salmonella typhimurium, UniProt Q8ZKQ6); assay: LsrK inhibition assay (Kinase-Glo luminescence); format: biochemical; settings: for inhibition at 200 µM: Table 1, hits at 200 μM with 100 μM ATP; for type of LsrK inhibition: from IC50 values at 50, 100 and 150 μM ATP
T1 sequence (Q8ZKQ6 whole entry): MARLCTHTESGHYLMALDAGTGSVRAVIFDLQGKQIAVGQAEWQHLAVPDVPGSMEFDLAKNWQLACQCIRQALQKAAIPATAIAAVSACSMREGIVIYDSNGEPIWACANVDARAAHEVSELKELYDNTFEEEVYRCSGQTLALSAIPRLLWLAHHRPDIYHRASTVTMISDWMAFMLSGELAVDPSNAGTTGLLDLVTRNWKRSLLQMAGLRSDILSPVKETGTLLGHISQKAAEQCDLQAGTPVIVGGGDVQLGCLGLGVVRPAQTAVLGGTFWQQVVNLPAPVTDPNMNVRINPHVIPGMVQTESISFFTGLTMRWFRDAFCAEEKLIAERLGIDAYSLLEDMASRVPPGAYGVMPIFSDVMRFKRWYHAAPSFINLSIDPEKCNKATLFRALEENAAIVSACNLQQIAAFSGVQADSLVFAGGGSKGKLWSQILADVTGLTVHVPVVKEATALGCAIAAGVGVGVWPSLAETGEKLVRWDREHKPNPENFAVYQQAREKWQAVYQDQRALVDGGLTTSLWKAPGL
Method: (§1) To express LsrK with a 6 × His-tag at the C-terminus, the LsrK encoding gene of Salmonella typhimurium was amplified using primers carrying restriction endonuclease sites BamHI and XhoI. The amplified product was cloned into the expression vector pET-28a with a C-terminal 6 × His-tag and transfected into E. coli BL21 (DE3).
This assay was performed as previously described ([Gatta et al., 2019]), and the conditions were optimized. […] 74 purchased compounds were dissolved in dimethyl sulfoxide (20% v/v DMSO in reaction buffer) at a concentration of 2 mM. Briefly, 10 μL DPD, 10 μL LsrK, and 5 μL compound were added to a 96-well plate, and 25 μL ATP or 25 μL reaction buffer was added after 30 min incubation. The plate was incubated for 10 min at 37°C, then 50 μL of kit reagent was added, and the plate was incubated at 37°C for 15 min. The luminescence signal was measured using an Enspire 2300 microplate reader (PerkinElmer). Dose-response tests were carried out to verify the activity of hits chosen by primary screening. (200 μM–6.25 µM) ([Medarametla et al., 2018]). The inhibition percentage of each tested compound was determined as previously described and IC50 was calculated using four logistic parameters.

[2] = tested on: AI-2-mediated QS (lsr promoter luminescence, reporter strain WHQ02); assay: Cell-based AI-2-mediated QS interference assay; set-up: species or system E. coli; settings: for IC50: Escherichia coli, cell-based QS interference assay, WHQ02, mean ± SD, n = 3
Excerpt: All chemicals were purchased from Sigma-Aldrich (St. Louis, MO, United States) unless otherwise stated. DPD was purchased from the […] ZZBIO Co., LTD. (Shanghai, China). The Kinase-Glo Max Luminescent Kinase Assay Kit was purchased from Promega (Madison, WI, United States). NTA sensor chips were purchased from GE Healthcare (Chicago, IL, United States). All compounds used as potential inhibitors of LsrK were purchased from Topscience Biotechnology Co. Ltd. (Shanghai, China). The QS reporter strain WHQ02 (E. coli BL21 ΔTolC pWHQ01) was donated by Huiqi Wen (Institute of Microbiology and Epidemiology, Academy of Military Sciences, Beijing, China). The plasmid pWHQ01 was constructed by cloning the lsr promoter and the luxCDABE luminescent gene. BamHI and XhoI were purchased from New England Biolabs (Ipswich, MA, United States). pET-28a was purchased from Novagen (Madison, WI, United States). Escherichia coli BL21 (DE3) cells were purchased from TransGen Biotech Co., LTD. (Beijing, China). A Ni-NTA column was purchased from Sangon Biotech (Shanghai, China). Sodium dodecyl sulfate-polyacrylamide gel electrophoresis (SDS-PAGE) and the Bradford Protein Assay Kit were purchased from Thermo Fisher Scientific (Waltham, MA, United States).
(§2) WHQ02 cultured overnight were diluted 1:100 in fresh LB supplemented with 100 μg/mL ampicillin and grown at 30°C and until the logarithmic phase (OD600 = 0.4–0.6). The bacterial culture was centrifuged at 4,000 × g for 5 min, and the pellet was resuspended in fresh LB medium to prepare a suspension of 2 McFarland standard and added to the 96-well plate. In the experimental group, 74 compounds (final concentrations ranging from 100 to 3.125 μM) were added to reach a total volume of 100 µL. In addition, 100 µL LB medium with an equal volume of DMSO (negative control) or 100 µL LB supplemented with 2% glucose and the same volume of DMSO (positive control) were added. Bacteria was cultured at 37°C with shaking for 3 h. The […] of WHQ02 is directly regulated by the lsr promoter, reflecting the strength of QS. The luminescence and OD600 were measured using an Enspire 2300 microplate reader (Perkin Elmer). To further study the effect of compounds on bacterial growth, overnight cultured WHQ02 was diluted 1:1,000 with LB medium and added to 96 well plate. Then, the compounds were added to a 96-well plate (final concentration: 100 µM) and diluted in a gradient. The same volume of DMSO was added to the control group. The plates were incubated at 37°C for 18 h. OD600 values were recorded using an Enspire 2300 microplate reader. The experiment was performed in triplicate.

[3] = molecular target: T1, LsrK; assay: SPR assay; format: binding
Excerpt: as §1
His-tagged LsrK was immobilized in the NTA sensor chip (GE Healthcare) in Biacore 8 K using a running buffer consisting of 1 × PBS-T and 5% v/v DMSO. Serially diluted small molecules (concentration range: 50 to 1.56 µM) were injected. Intermediate concentration (12.5 µM) was set as a repeat, and 1 × PBS-T with 5% v/v DMSO was set as the control. The association time was set to 120 s; the dissociation time was set to 130 s; and the flow rate was set to 30 μL/min. The resulting data were fitted to the affinity binding model using Biacore Evaluation Software (GE Healthcare).

[4] = tested on: LsrK; settings: Figure 2, cited from earlier work
[5] = tested on: WHQ02 (E. coli BL21 ΔTolC pWHQ01); assay: Growth inhibition of the reporter strain (OD600); format: cell-based; settings: 100 to 3.13 μM
Method: as §2
The 12 hits showing >60% LsrK inhibition were tested for QS inhibition using cell-based AI-2-mediated QS interference assay, as previously described [Baba et al., 2006]). To ensure that lower luminescence was the result of QS inhibition not the chemical toxicity or antibacterial activity, strain growth inhibition was assessed concurrently. […] Therefore, a parallel experiment to test the MIC of compounds at a low bacterial density was conducted, indirectly reflecting the potential growth inhibition to avoid false positives.

[6] = tested on: AI-2 QS; settings: Figure 2, ref Gatta et al., cited from earlier work
[7] = 50 μM ATP, mean ± SD, n = 3, read-out: IC50A
[8] = 100 μM ATP, mean ± SD, n = 3, read-out: IC50B
[9] = 150 μM ATP, mean ± SD, n = 3, read-out: IC50C

Row | SMILES | IC50 [1, 8] [µM] | inhibition at 200 µM ([1]; mean ± SD, n = 3) [%] | IC50 [2] [µM] | other results
1 | Cc1c(O)cc(O)c2c(=O)c(O)c(-c3ccc(O)c(O)c3)oc12 [N025-0038] | 43.7 ± 4.31 | 80.5 ± 2.31 | 12.5 ± 0.99 | IC50 [1, 7]: 26.6 ± 1.22 µM; IC50 [1, 9]: 68 ± 1.27 µM; type of LsrK inhibition [1]: ATP-competitive inhibitors; AI-2 QS inhibitory activity (in words) ([2]; 100 to 3.13 μM): significant QS inhibitory activities; also recorded: exhibited AI-2 QS inhibition at sub-minimum inhibitory concentrations; also recorded: exhibited QS inhibition at sub-MIC concentrations; Kd ([3]; His-tagged LsrK on NTA chip, 50 to 1.56 µM, affinity binding model): 30.3 µM; LsrK specific binding (in words) ([3]; SPR): specifically bound to LsrK; also recorded: exhibited LsrK specific binding
2 | CCOc1ccc(/C=N\NC(=S)Nc2cccc(C(=O)O)c2)cc1O [3284–0335] | 84.9 ± 7.73 | 67.6 ± 4.88 | > 100 | –
3 | Cc1ccc(Cl)c(Nc2ccccc2C(=O)O)c1Cl [compound 1] | – | – | – | IC50 ([4]; ref Medarametla et al., 2018): 178 µM
4 | Cc1ccc(C(=O)O)cc1NC(=O)c1nn2cccnc2c1Cl [Y502-2013] | 140 ± 5.54 | 69.1 ± 8.64 | > 100 | –
5 | C/C(=N/NC(=S)Nc1cccc(C(=O)O)c1)c1ccc(C)cc1 [3284–1358] | 41.8 ± 2.57 | 101 ± 3.82 | 37.8 ± 3.18 | IC50 [1, 7]: 29.9 ± 1.95 µM; IC50 [1, 9]: 88.1 ± 3.89 µM; type of LsrK inhibition [1]: ATP-competitive inhibitors; maximum growth inhibition [5]: < 40%; AI-2 QS inhibitory activity (in words) ([2]; 100 to 3.13 μM): significant QS inhibitory activities; maximum AI-2 QS inhibition ([2]; 100 to 3.13 μM): > 80%
6 | O=C(O)C[C@H]1S/C(=N\N=C2\C(=O)Nc3ccccc32)N(c2ccc(O)cc2)C1=O [4515–0182] | 52.1 ± 2.68 | 83.7 ± 9.63 | > 100 | –
7 | O=C(O)[C@@H]1[C@@H](C(=O)Nc2cc(C(F)(F)F)ccc2Cl)[C@H]2C=C[C@@H]1O2 [Y204-6349] | 75.1 ± 1.19 | 87.4 ± 2.6 | > 100 | –
8 | CC(C)c1ccc2nc(Cc3cccc(C(N)=O)c3)[nH]c(=O)c2c1 [Z951211480] | – | – | – | Inhibition (%) ([1]; Supplementary Table 1, 200 uM compound, 100 μM ATP, mean ± SD, n = 3, * = colour of the compound interferes with luminescence): 0%
9 | O=C1C=CC(=C(c2ccc(O)cc2)c2ccc(O)cc2)C=C1 [compound 5, rosolic acid] | – | – | – | IC50 ([4]; ref Gatta et al., 2019): 1 µM; IC50 [6]; 2019: 11 µM
10 | O=C1NC(=S)S/C1=C\c1c[nH]c2ccc(OCc3ccccc3)cc12 [3681–1274] | 133 ± 8.85 | 66.2 ± 3.54 | 42.2 ± 2.15 | AI-2 QS inhibitory activity (in words) ([2]; 100 to 3.13 μM): significant QS inhibitory activities
11 | O=C(O)C(=O)Nc1nc2ccc(NC(=O)c3cc(Br)c(Br)[nH]3)cc2s1 [compound 3] | – | – | – | IC50 ([4]; ref Gatta et al., 2020): 18 ± 2 µM; IC50 [6]; 2020: 0.6 ± 0.1 µM
